Data published in ChEMBL document CHEMBL1129213, “Synthesis and structure-activity relationships of potent conformationally restricted retinoid X receptor ligands” (Bioorg Med Chem Lett, 1997).

Key:
[1] = target: T1, Retinoic acid receptor RXR-beta (Homo sapiens, UniProt P28702); test: Inhibition of [3H]9-cis-RA binding to RXR beta receptor
T1 sequence (P28702 whole entry): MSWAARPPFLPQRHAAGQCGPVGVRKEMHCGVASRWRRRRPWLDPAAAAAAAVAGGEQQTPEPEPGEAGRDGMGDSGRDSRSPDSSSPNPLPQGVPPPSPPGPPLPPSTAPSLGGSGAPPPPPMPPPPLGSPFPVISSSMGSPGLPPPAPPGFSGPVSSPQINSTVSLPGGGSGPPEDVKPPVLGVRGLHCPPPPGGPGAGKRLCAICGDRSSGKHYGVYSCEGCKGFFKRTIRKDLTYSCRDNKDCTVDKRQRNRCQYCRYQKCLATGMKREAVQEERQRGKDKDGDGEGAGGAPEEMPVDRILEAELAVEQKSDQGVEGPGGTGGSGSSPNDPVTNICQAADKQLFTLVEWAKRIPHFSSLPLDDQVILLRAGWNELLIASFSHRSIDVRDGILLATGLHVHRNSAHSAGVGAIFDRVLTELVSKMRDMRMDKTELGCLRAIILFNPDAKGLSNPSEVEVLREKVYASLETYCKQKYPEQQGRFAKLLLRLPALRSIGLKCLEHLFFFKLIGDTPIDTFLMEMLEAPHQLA

[2] = target: T2, Retinoic acid receptor RXR-gamma (Homo sapiens, UniProt P48443); test: Inhibition of [3H]9-cis-RA binding to RXR gamma receptor
T2 sequence (P48443 whole entry): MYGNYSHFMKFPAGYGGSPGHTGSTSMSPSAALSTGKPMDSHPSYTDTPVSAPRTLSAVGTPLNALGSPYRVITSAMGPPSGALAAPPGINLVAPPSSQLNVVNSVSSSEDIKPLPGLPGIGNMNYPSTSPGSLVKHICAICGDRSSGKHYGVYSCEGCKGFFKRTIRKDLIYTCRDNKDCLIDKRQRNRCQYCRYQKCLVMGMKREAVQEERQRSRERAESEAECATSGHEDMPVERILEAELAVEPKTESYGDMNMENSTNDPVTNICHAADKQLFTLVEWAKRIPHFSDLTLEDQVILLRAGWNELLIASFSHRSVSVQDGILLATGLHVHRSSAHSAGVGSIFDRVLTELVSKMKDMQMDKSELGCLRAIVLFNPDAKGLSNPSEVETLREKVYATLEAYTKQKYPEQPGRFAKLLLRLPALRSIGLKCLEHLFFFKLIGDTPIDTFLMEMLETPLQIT

[3] = target: T3, Retinoic acid receptor beta (Homo sapiens, UniProt P10826); test: Inhibition of [3H]ATRA binding to RAR beta receptor
T3 sequence (P10826 whole entry): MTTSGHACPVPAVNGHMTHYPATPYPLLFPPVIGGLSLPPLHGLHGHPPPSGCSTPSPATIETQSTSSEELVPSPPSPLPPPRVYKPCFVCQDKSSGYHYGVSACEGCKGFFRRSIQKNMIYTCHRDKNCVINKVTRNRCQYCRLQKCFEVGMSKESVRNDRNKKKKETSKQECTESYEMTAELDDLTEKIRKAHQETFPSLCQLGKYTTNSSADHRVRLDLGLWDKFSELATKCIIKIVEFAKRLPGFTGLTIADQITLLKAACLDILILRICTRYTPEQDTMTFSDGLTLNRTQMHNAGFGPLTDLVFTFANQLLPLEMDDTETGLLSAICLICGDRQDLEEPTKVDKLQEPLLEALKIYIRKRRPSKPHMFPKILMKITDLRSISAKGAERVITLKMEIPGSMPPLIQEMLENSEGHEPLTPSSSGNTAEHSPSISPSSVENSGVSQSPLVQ

[4] = target: T4, Retinoic acid receptor alpha (Homo sapiens, UniProt P10276); test: Transcriptional activation in CV-1 cells expressing retinoic acid receptor RAR alpha; not active; assay type: functional, cell-based
T4 sequence (P10276 whole entry): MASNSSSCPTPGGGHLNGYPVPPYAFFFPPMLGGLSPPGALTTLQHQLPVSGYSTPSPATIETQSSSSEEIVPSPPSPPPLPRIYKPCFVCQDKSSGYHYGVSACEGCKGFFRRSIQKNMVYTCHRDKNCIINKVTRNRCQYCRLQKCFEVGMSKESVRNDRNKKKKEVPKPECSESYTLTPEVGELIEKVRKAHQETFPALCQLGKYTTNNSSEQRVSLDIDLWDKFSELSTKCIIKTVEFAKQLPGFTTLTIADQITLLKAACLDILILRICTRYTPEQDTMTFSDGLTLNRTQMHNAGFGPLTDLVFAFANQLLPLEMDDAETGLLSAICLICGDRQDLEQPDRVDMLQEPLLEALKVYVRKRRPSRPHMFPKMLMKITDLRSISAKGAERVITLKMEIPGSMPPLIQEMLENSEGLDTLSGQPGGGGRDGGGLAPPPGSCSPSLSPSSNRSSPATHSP

[5] = target: T4, Retinoic acid receptor alpha; test: Inhibition of [3H]ATRA binding to RAR alpha receptor
[6] = target: T5, Retinoic acid receptor RXR-alpha (Homo sapiens, UniProt P19793); test: Transcriptional activation in CV-1 cells expressing retinoid X receptor RXR alpha; assay type: functional, cell-based
T5 sequence (P19793 whole entry): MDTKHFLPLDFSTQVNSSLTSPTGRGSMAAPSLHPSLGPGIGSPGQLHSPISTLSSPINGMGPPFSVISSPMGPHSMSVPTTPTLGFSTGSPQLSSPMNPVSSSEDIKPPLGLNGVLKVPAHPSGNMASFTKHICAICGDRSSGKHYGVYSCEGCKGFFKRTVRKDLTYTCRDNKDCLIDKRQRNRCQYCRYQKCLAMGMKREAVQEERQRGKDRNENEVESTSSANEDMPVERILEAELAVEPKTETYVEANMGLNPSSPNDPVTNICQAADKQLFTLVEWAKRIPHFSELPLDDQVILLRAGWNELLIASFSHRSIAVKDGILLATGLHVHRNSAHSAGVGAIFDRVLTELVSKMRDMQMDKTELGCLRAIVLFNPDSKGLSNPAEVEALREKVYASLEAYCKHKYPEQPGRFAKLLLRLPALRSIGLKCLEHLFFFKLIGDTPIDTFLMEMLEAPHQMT

[7] = target: T3, Retinoic acid receptor beta; test: Transcriptional activation in CV-1 cells expressing retinoic acid receptor RAR beta; assay type: functional, cell-based
[8] = target: T6, Retinoic acid receptor gamma (Homo sapiens, UniProt P13631); test: Inhibition of [3H]ATRA binding to RAR gamma receptor
T6 sequence (P13631 whole entry): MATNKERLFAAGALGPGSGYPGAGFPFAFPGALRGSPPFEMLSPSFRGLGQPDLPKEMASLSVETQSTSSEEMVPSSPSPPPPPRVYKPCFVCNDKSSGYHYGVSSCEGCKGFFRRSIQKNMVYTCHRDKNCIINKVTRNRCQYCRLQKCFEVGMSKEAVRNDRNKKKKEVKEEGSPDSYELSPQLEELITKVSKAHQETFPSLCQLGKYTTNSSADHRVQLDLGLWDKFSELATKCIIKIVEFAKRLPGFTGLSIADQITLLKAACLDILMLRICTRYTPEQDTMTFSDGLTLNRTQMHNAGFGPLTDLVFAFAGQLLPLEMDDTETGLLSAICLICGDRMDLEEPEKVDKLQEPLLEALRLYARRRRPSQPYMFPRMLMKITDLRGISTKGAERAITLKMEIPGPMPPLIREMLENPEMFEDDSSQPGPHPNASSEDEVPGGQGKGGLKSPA

[9] = target: T1, Retinoic acid receptor RXR-beta; test: Transcriptional activation in CV-1 cells expressing retinoid X receptor RXR beta; assay type: functional, cell-based
[10] = target: T2, Retinoic acid receptor RXR-gamma; test: Transcriptional activation in CV-1 cells expressing retinoid X receptor RXR gamma; assay type: functional, cell-based
[11] = target: T5, Retinoic acid receptor RXR-alpha; test: Inhibition of [3H]9-cis-RA binding to RXR alpha receptor
[12] = target: T6, Retinoic acid receptor gamma; test: Transcriptional activation in CV-1 cells expressing retinoic acid receptor RAR gamma; assay type: functional, cell-based
[13] = target: T4, Retinoic acid receptor alpha; test: Transcriptional activation in CV-1 cells expressing retinoic acid receptor RAR alpha; inactive; assay type: functional, cell-based
[14] = target: T3, Retinoic acid receptor beta; conditions: cv-1
[15] = target: T6, Retinoic acid receptor gamma; conditions: cv-1

| SMILES | Ki [1] | Ki [2] | Ki [3] | EC50 [4] | Ki [5] | EC50 [6] | EC50 [7] | Ki [8] | EC50 [9] | EC50 [10] | Ki [11] | EC50 [12] | EC50 [13] | EC50 [14] | EC50 [15] |
| --- | --- | --- | --- | --- | --- | --- | --- | --- | --- | --- | --- | --- | --- | --- | --- |
| CC(/C=C/C1(c2cc3c(cc2C)C(C)(C)CCC3(C)C)CCCC1)=C\C(=O)O | > 1000 nM | > 1000 nM | > 1000 nM | Not Active | > 1000 nM | 2520 nM | 809 nM | > 1000 nM | 2000 nM | 2710 nM | > 1000 nM | 1780 nM | – | – | – |
| CC(/C=C/C1(c2cc3c(cc2C)C(C)(C)CCC3(C)C)CC1)=C\C(=O)O | 4 nM | 5 nM | > 1000 nM | – | > 1000 nM | – | – | > 1000 nM | 13 nM | 7 nM | 4 nM | – | Not Active | Not Active | – |
| CC(/C=C/C1(c2ccc3c(c2)C(C)(C)CCC3(C)C)CCCC1)=C\C(=O)O | 124 nM | 172 nM | > 1000 nM | Not Active | > 1000 nM | 51 nM | – | > 1000 nM | 127 nM | 192 nM | 92 nM | – | – | Not Active | Not Active |

Next, values leading:

| Ki [1] | Ki [2] | Ki [3] | EC50 [4] | Ki [5] | EC50 [6] | EC50 [7] | Ki [8] | EC50 [9] | EC50 [10] | Ki [11] | EC50 [12] | EC50 [13] | EC50 [14] | EC50 [15] | SMILES |
| --- | --- | --- | --- | --- | --- | --- | --- | --- | --- | --- | --- | --- | --- | --- | --- |
| 199 nM | 290 nM | 909 nM | Not Active | 944 nM | – | – | 887 nM | 486 nM | 404 nM | 150 nM | – | – | – | – | C=C(c1ccc(C(=O)O)cc1)c1ccc2c(c1)C(C)(C)CCC2(C)C |
| 7 nM | 6 nM | > 1000 nM | Not Active | > 1000 nM | 23 nM | 287 nM | > 1000 nM | 19 nM | 24 nM | 3 nM | 399 nM | – | – | – | CC(/C=C/C1(c2ccc3c(c2)C(C)(C)CCC3(C)C)CC1)=C\C(=O)O |
